Results from BindingDB's records for doi:10.1016/j.bmcl.2005.05.109 (Merck Research Laboratories, 2005).

Assay: Inhibition concentration (binding affinity) against […] melanocortin receptor 4 by displacement of [125I]NDP-alpha-MSH from the human receptors expressed in CHO cells

- IC50: 7 µM
Structure (SMILES): CN1C[C@H]2CC[C@@H]1[C@H](C(=O)N[C@H](Cc1ccc(F)cc1)C(=O)N1CCC(C(=O)NC(C)(C)C)(C3CCCCC3)CC1)C2 [(1R,4S,6R)-2-Methyl-2-aza-bicyclo[2.2.2]octane-6-carboxylic acid [(R)-2-(4-tert-butylcarbamoyl-4-cyclohexyl-piperidin-1-yl)-1-(4-fluoro-benzyl)-2-oxo-ethyl]-amide]
